From US20240400586A1, “HETEROARYL DERIVATIVE PARP INHIBITOR AND USE THEREOF” (HAISCO PHARMACEUTICAL GROUP CO., LTD., priority 2021, published 2024) come the findings set out here.

What is called IC50 is the concentration that inhibits the measured activity by half.

The test system of assay [1] is breast tumor cells MDA-MB-436. The assay can be described thus: MDA-MB-436 cell activity test (CellTiter-Glo, 7 days). The class given is cell-based. The note with it: Homo sapiens, MDA-MB-436, 168 h, 7 days incubation; for inhibition at 10 µM: read-out: MDA-MB-436 Max inh. % 10 μM; for IC50: read-out: MDA-MB-436 cell inhibitory activity IC50. How it is done:
Breast tumor cells MDA-MB-436 were purchased from ATCC, the culture medium was Leibovitz's L-15+10% FBS, and the cells were cultured in a CO2-free incubator at 37° C. On day 1, the cells in the exponential growth phase were collected, and the cell suspension was adjusted to 4000 cells/135 μL with the culture medium. 135 μL of the cell suspension was added to each well of a 96-well cell culture plate and incubated overnight. On day 2, compounds at different concentrations were added, and the plate was placed in the incubator and incubated for 7 days. After the incubation was completed, according to operation instructions for a CellTiter-Glo kit (Promega, G7573), 75 μL of CTG solution, which was already pre-melted and equilibrated to room temperature, was added to each well, and the mixture was uniformly mixed for 2 min using a microplate shaker. The plate was placed at room temperature for 10 min, and then […] were measured using an Envision2104 plate reader (PerkinElmer). The inhibition rate was calculated using formula (1), where RLUcompound was the readout of the drug treated group, RLUcontrol was the average value of the vehicle control group, and RLUblank was the average value of the cell-free well. The IC50 value was calculated using GraphPad Prism software.
On the technique in general: In ATP-based viability assays light output follows the ATP content of the culture.

Assay [2] deals with PARP-1 enzyme (Homo sapiens (Human), UniProt P09874). The assay can be described thus: PARP1 enzyme activity test (BPS Bioscience chemiluminescence kit). In kind it is biochemical. The source says:
Inhibition %=(1−(RLUsample−RLUmin)/(RLUmax−RLUmin))×100% (formula 1)

PARP-1 enzyme, sequence (P09874 whole entry): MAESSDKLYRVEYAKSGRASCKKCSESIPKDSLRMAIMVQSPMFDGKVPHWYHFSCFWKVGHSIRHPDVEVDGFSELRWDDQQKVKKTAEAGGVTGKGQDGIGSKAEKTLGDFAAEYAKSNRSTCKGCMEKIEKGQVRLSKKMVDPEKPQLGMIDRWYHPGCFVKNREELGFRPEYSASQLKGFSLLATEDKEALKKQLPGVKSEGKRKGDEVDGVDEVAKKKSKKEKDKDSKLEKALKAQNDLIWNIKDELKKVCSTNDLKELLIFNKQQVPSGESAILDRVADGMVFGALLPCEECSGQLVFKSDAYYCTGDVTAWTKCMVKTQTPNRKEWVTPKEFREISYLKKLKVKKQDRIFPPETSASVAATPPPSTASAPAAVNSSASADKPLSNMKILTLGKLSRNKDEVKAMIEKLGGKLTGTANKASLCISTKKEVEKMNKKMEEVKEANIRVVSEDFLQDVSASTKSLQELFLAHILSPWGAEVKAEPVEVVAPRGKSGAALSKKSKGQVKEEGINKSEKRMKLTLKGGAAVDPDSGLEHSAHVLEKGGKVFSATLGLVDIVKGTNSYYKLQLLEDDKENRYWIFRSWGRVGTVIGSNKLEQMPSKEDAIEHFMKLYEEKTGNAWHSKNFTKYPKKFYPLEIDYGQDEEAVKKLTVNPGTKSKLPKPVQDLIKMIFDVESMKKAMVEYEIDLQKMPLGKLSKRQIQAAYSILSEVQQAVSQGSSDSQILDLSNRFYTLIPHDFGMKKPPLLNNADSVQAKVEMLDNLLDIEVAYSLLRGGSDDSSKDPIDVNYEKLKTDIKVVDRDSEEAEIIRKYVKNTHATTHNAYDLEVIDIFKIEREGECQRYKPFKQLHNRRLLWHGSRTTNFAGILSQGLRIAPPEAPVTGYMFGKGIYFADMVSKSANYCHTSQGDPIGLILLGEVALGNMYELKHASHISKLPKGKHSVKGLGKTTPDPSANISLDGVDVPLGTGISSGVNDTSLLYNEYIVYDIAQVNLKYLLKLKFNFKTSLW

Turning to `CCc1cc2ncc(CN3CCN(c4ccc(NC(=O)[C@@H]5CC5(F)F)nc4)CC3)cc2[nH]c1=O` (single isomer, unassigned) [Compound 50], the inhibition at 10 µM in assay [1] turned out to be 92.9%. Further, the figures for the half-maximal inhibitory concentration (IC50) in assay [1] and in assay [2] were 3 nM and 0.69 nM, respectively.

Turning to `CCc1cc2ncc(CN3CCN(c4ccc(NC(=O)[C@H]5CC5(F)F)nc4)CC3)cc2[nH]c1=O` (single isomer, unassigned) [Compound 51], in assay [1], the inhibition at 10 µM worked out at 95.6% and the IC50 worked out at 8.5 nM. Half-maximal inhibition in assay [2] (IC50) was put at 0.66 nM.

Turning to `CCc1cc2ncc(CN3CCN(c4cnc(C(=O)NC)c(F)c4)CC3)cc2[nH]c1=O` [Compound 6, 5-(4-((7-ethyl-6-oxo-5,6-dihydro-1,5-naphthyridin-3-yl)methyl)piperazin-1-yl)-3-fluoro-N-methylpicolinamide], in assay [1], the inhibition at 10 µM is 85.7% and the IC50 worked out at 10 nM. Moreover, the midpoint of inhibition in assay [2], the IC50, lay at 0.56 nM.

Regarding `CCc1cc2ncc(CN3CCN(c4ccc(NC(=O)C5CC5)nc4)CC3)cc2[nH]c1=O` [Compound 9, N-(5-(4-((7-ethyl-6-oxo-5,6-dihydro-1,5-naphthyridin-3-yl)methyl)piperazin-1-yl)pyridin-2-yl)cyclopropanecarboxamide], in assay [1], the inhibition at 10 µM is 86.2% and the IC50 turned out to be 6 nM. In assay [2], this compound yielded a half-inhibitory concentration (IC50) of 0.73 nM.

Turning to `CCc1cc2ncc(CN3CCN(c4ccc(C(=O)NC5CCC5)nc4)CC3)cc2[nH]c1=O` [Compound 10, N-cyclobutyl-5-(4-((7-ethyl-6-oxo-5,6-dihydro-1,5-naphthyridin-3-yl)methyl)piperazin-1-yl)picolinamide], in assay [1], the inhibition at 10 µM stood at 94.2% and the IC50 was 17 nM. Besides, the IC50 in assay [2] is 0.56 nM.

Turning to `CCc1cc2ncc(CN3CCN(c4ccc(C(=O)N[C@@H]5C[C@@H]5F)nc4)CC3)cc2[nH]c1=O` [Compound 11, 5-(4-((7-ethyl-6-oxo-5,6-dihydro-1,5-naphthyridin-3-yl)methyl)piperazin-1-yl)-N-((1R,2S)-2-fluorocyclopropyl)picolinamide], in assay [1], the inhibition at 10 µM came to 85.2% and the IC50 is 6 nM. In assay [2], this compound showed an IC50 of 0.54 nM.

Take `CCc1cc2ncc(CN3CCN(c4ccc(C(=O)NC5CNC5)nc4)CC3)cc2[nH]c1=O` [Compound 22, N-(azetidin-3-yl)-5-(4-((7-ethyl-6-oxo-5,6-dihydro-1,5-naphthyridin-3-yl)methyl)piperazin-1-yl)picolinamide]: in assay [1], the inhibition at 10 µM was 89.4% and the IC50 amounted to 12 nM. The compound also yielded a concentration for half-maximal inhibition (IC50) in assay [2] of 0.51 nM.

For the compound `CCc1cc2ncc(CN3CCN(c4ccc(C(=O)Nc5cnn(C)c5)nc4)CC3)cc2[nH]c1=O` [Compound 23, 5-(4-((7-ethyl-6-oxo-5,6-dihydro-1,5-naphthyridin-3-yl)methyl)piperazin-1-yl)-N-(1-methyl-1H-pyrazol-4-yl)picolinamide], the inhibition at 10 µM in assay [1] was determined as 84.2%. Moreover, the IC50 in assay [1] turned out to be 1.4 nM; in assay [2], 0.67 nM.

Turning to `CCc1cc2ncc(CN3CCN(c4ccc(C(=O)NCCOC)nc4)CC3)cc2[nH]c1=O` [Compound 24, 5-(4-((7-ethyl-6-oxo-5,6-dihydro-1,5-naphthyridin-3-yl)methyl)piperazin-1-yl)-N-(2-methoxyethyl)picolinamide], in assay [1], the inhibition at 10 µM was 82.3% and the half-inhibitory concentration (IC50) turned out to be 9 nM. In assay [2], this compound showed a concentration for half-maximal inhibition (IC50) of 0.73 nM.

As to `CCc1cc2ncc(CN3CCN(c4ccc(C(=O)NC5CC(F)(F)C5)nc4)CC3)cc2[nH]c1=O` [Compound 25, N-(3,3-difluorocyclobutyl)-5-(4-((7-ethyl-6-oxo-5,6-dihydro-1,5-naphthyridin-3-yl)methyl)piperazin-1-yl)picolinamide], in assay [1], the inhibition at 10 µM turned out to be 99% and the IC50 was found to be 16 nM. Also, in assay [2], it took 0.88 nM to reach half-maximal inhibition (IC50).

In the case of `CCc1cc2ncc(CN3CCN(c4ccc(NC(=O)C5CC(F)(F)C5)nc4)CC3)cc2[nH]c1=O` [Compound 26, N-(5-(4-((7-ethyl-6-oxo-5,6-dihydro-1,5-naphthyridin-3-yl)methyl)piperazin-1-yl)pyridin-2-yl)-3,3-difluorocyclobutane-1-carboxamide], the inhibition at 10 µM in assay [1] was 86.3%. Besides, the IC50 came out at 18 nM in assay [1] and 0.48 nM in assay [2].

Take `CCc1cc2ncc(CN3CCN(c4ccc(NC(=O)c5cnn(C)c5)nc4)CC3)cc2[nH]c1=O` [Compound 33, N-(5-(4-((7-ethyl-6-oxo-5,6-dihydro-1,5-naphthyridin-3-yl)methyl)piperazin-1-yl)pyridin-2-yl)-1-methyl-1H-pyrazole-4-carboxamide]: the inhibition at 10 µM in assay [1] came to 90%. In addition, the IC50 in assay [1] amounted to 3.1 nM; in assay [2], 0.74 nM.

On to `CCc1cc2ncc(CN3CCN(c4ccc(NC(=O)OC5CC5)nc4)CC3)cc2[nH]c1=O` [Compound 37, Cyclopropyl(5-(4-((7-ethyl-6-oxo-5,6-dihydro-1,5-naphthyridin-3-yl)methyl)piperazin-1-yl)pyridin-2-yl)carbamate], for which the inhibition at 10 µM in assay [1] amounted to 93.7%. For the same compound, the IC50 in assay [1] was found to be 18.9 nM; in assay [2] it was 0.96 nM.

Regarding `CCc1cc2ncc(CN3CCN(c4ccc(C(=O)NC5CC6(CCC6)C5)nc4)CC3)cc2[nH]c1=O` [Compound 38, 5-(4-((7-ethyl-6-oxo-5,6-dihydro-1,5-naphthyridin-3-yl)methyl)piperazin-1-yl)-N-(spiro[3.3]heptan-2-yl)picolinamide], in assay [1], the inhibition at 10 µM was 98.8% and the IC50 worked out at 17.6 nM. 0.7 nM corresponded to half-maximal inhibition in assay [2] (IC50).

With `CCc1cc2ncc(CN3CCN(c4ccc(C(=O)NC56CC(C5)C6)nc4)CC3)cc2[nH]c1=O` [Compound 39, N-(bicyclo[1.1.1]pentan-1-yl)-5-(4-((7-ethyl-6-oxo-5,6-dihydro-1,5-naphthyridin-3-yl)methyl)piperazin-1-yl)picolinamide], in assay [1], the inhibition at 10 µM turned out to be 99.1% and the IC50 stood at 1.2 nM. Besides, the IC50 in assay [2] was found to be 0.77 nM.

For the compound `CCc1cc2ncc(CN3CCN(c4cn5cc(C(F)(F)F)nc5cn4)CC3)cc2[nH]c1=O` [Compound 43, 3-ethyl-7-((4-(2-(trifluoromethyl)imidazo[1,2-a]pyrazin-6-yl)piperazin-1-yl)methyl)-1,5-naphthyridin-2 (1H)-one], the IC50 in assay [2] was 0.93 nM.

Turning to `CCc1cn2cc(N3CCN(Cc4cnc5cc(CC)c(=O)[nH]c5c4)CC3)ncc2n1` [Compound 44, 3-ethyl-7-((4-(2-ethylimidazo[1,2-a]pyrazin-6-yl)piperazin-1-yl)methyl)-1,5-naphthyridin-2 (1H)-one], the concentration for half-maximal inhibition (IC50) in assay [2] worked out at 0.92 nM.

Compound `CCc1cc2ncc(CN3CCN(c4cn5cc(C(F)F)nc5cn4)CC3)cc2[nH]c1=O` [Compound 45] returned an IC50 in assay [2] of 0.73 nM.

As for `CCc1cc2ncc(CN3CCN(c4ccc(C(=O)NC5CN(c6ccccc6)C5)nc4)CC3)cc2[nH]c1=O` [Compound 46, 5-(4-((7-ethyl-6-oxo-5,6-dihydro-1,5-naphthyridin-3-yl)methyl)piperazin-1-yl)-N-(1-phenylazetidin-3-yl)picolinamide], the IC50 in assay [2] turned out to be 0.56 nM.

`CCc1cc2ncc(CN3CCN(c4ccc(C(=O)Nc5ccn(C)n5)nc4)CC3)cc2[nH]c1=O` [Compound 48, 5-(4-((7-ethyl-6-oxo-5,6-dihydro-1,5-naphthyridin-3-yl)methyl)piperazin-1-yl)-N-(1-methyl-1H-pyrazol-3-yl)picolinamide] registered an IC50 in assay [2] of 0.35 nM.
